Measured values from patent publication US20090130759A1, “Culture Medium Containing Kinase Inhibitor, and Use Thereof” (The University Court of the University of Edinburgh, priority 2005, published 2009).

Tests used:
mouse and human ES cells = assay: Attempt to repeat reported effects of GSK3 inhibitor on ES cells (Sato et al); type: cell-based; settings: attempted repeat of published results
Description: Sato N, et al, Nat. Med. 2004, January 10(1) pp 55-63 describe the effects of a Glycogen Synthase Kinase 3 (GSK3) inhibitor, 6-bromoindirubin-3′-oxime, on mouse and human ES cells in serum containing medium. These effects, however, were observed only over a very short time frame, too short for firm conclusions to be drawn, and the influence of unknown factors in the undefined media used in that study may be significant.
Instead, ES cells died or differentiated in GSK-3β inhibitors alone.

mouse ES cells = assay: Self-renewal culture of mouse ES cells with GSK3 inhibitor and gp130 signalling (LIF); type: cell-based; settings: for promotion of self renewal of ES cells: GSK3 inhibitor used in ES cell culture
Procedure: (§1) Mouse and human ES cells were grown under various conditions, using N2B27 medium unless otherwise stated and in the presence or absence of the GSK-3β inhibitors CHIR99021, AR-AO144-18, SB216763 and SB415286.
N2 100× stock solution. For 10 ml: mix 1 ml insulin (final concentration 2.5 mg/ml) with 1 ml apo-transferrin (final concentration 10 mg/ml), 0.67 ml BSA (final concentration 5 mg/ml), 33 μl progesterone (final concentration […]), 100 μl putrescine (final concentration 1.6 mg/ml), 10 μl sodium selenite (final concentration 3 μM) and 7.187 ml DMEM/F12. Store at 4° C. and use within 1 month.
DMEM/F12-N2 medium: to 100 ml of DMEM/F12, add 1 ml of N2 100× stock solution. The final concentration of each component of N2 in the DMEM/F12 medium is: insulin, 25 μg/ml; apo-transferrin, 100 μg/ml; progesterone, 6 ng/ml; putrescine, 16 μg/ml; sodium selenite, 30 nM; BSA 50 μg/ml. Store at 4° C. and use within 1 month.
Neurolbasal/B27 medium: to 100 ml of Neurolbasal™ Medium, add 2 ml of B27 and 0.5-1 ml of 200 mM L-glutamine. Store at 4° C. and use within 1 month.
(§2) N2B27 medium: mix DMEM/F12-N2 medium with Neurolbasal/B27 medium in the ratio of 1:1. Add β-mercaptoethanol to a final concentration of 0.1 mM from the 0.1M stock. Store at 4° C. and use within 1 month.

human ES cells [1] = assay: Feeder-free, conditioned medium-free culture of human ES cells after forced expression of an Eras gene; type: cell-based
Procedure: as §1, §2
a) in N2B27 medium with bFGF, grown on laminin, fibronectin, vitronectin or matrigel; b) the same as a) but adding BMP4 (5 ng/ml) as well as bFGF; and c) the same as a) but adding a GSK-3β inhibitor as well as bFGF.

human ES cells [2] = assay: Human ES cell self-renewal in N2B27 medium on feeder cells; type: cell-based
Procedure: as §2
a) N2B27 medium with bFGF (10 ng/ml) and grown on feeder cells (HS27 human foreskin fibroblasts); and b) the same as a) but adding BMP4 (5 ng/ml) and LIF (10 ng/ml) as well as bFGF.

GSK3 = settings: cited from earlier work
[3] = N2B27, feeder cells, BMP4 (5 ng/ml) and LIF (10 ng/ml) added as well as bFGF

O=C1Nc2cc(Br)ccc2/C1=C1/Nc2ccccc2/C1=N\O [6-bromoindirubin-3′-oxime]
effects on mouse and human ES cells versus those described by Sato et al (mouse and human ES cells): effects opposite to those described

COc1ccc(CNC(=O)Nc2ncc([N+](=O)[O-])s2)cc1 [AR-AO144-18]
promotion of self renewal of ES cells (mouse ES cells): promote self renewal of ES cells

O=C1NC(=O)C(c2ccccc2[N+](=O)[O-])=C1Nc1ccc(O)c(Cl)c1 [SB415286]
promotion of self renewal of ES cells (mouse ES cells): promote self renewal of ES cells

Cn1cc(C2=C(c3ccc(Cl)cc3Cl)C(=O)NC2=O)c2ccccc21 [SB216763]
promotion of self renewal of ES cells (mouse ES cells): promote self renewal of ES cells

bFGF: FGF receptor agonist
growth of human ES cells in feeder-free, conditioned medium-free conditions (human ES cells [1]; N2B27 with bFGF, on laminin, fibronectin, vitronectin or matrigel): grew in feeder-free and conditioned medium-free conditions | sustaining human ES cell self-renewal (human ES cells [2]; N2B27 medium with bFGF (10 ng/ml), on HS27 human foreskin fibroblast feeder cells): could sustain human ES cell self-renewal

Cc1c[nH]c(-c2cnc(NCCNc3ccc(C#N)cn3)nc2-c2ccc(Cl)cc2Cl)n1 [CHIR 99021]
overall result of use in ES cell culture (mouse ES cells): Good results | promotion of self renewal of ES cells (mouse ES cells): promote self renewal of ES cells | E14.1A ES cells weaned off feeder cells (FIG. 1) (mouse ES cells; LIF+CHIR99021 with serum): weaned off feeder cells and grown | self renewal of mouse ES cells (mouse ES cells; combination with LIF in a serum-free, fully defined medium): improved self renewal of mouse ES cells with very little differentiation | specificity for GSK3 (GSK3): specific for GSK3

CHIR 98014
overall result of use in ES cell culture (mouse ES cells): Good results | promotion of self renewal of ES cells (mouse ES cells): promote self renewal of ES cells | specificity for GSK3 (GSK3): specific for GSK3

LIF: gp130 receptor binding cytokine
sustaining human ES cell self-renewal (human ES cells [2]; [3]): could sustain human ES cell self-renewal

B1: BMP4: agonist of the TGF-β superfamily (protein, UniProt P12644 293-408, looked up)
Bone morphogenetic protein 4: SPKHHSQRARKKNKNCRRHSLYVDFSDVGWNDWIVAPPGYQAFYCHGDCPFPLADHLNSTNHAIVQTLVNSVNSSIPKACCVPTELSAISMLYLDEYDKVVLKNYQEMVVEGCGCR
growth of human ES cells in feeder-free, conditioned medium-free conditions (human ES cells [1]; N2B27 with BMP4 (5 ng/ml) as well as bFGF): grew in feeder-free and conditioned medium-free conditions | sustaining human ES cell self-renewal (human ES cells [2]; [3]): could sustain human ES cell self-renewal
